# Assay results: article PMC9866218, “Characterization and Chemical Synthesis of Cm39 (α-KTx 4.8): A Scorpion Toxin That Inhibits Voltage-Gated K^+ Channel KV1.2 and Small- and Intermediate-Conductance Ca^2+-Activated K^+ Channels KCa2.2 and KCa3.1” (Toxins, 2023)
# Bridge positions count the residues as written; N and C are the ends. Ends that are not written are not given here.
# Key:
# [1] = tested on: hKV1.1; assay type: cell-based, human
# From the text: (§1) We, therefore, aimed at testing the pharmacological activity of sCm39 on a battery of various potassium and sodium ion channels. Among the tested channels were six members of human voltage-gated K^+ (hKV) channels from Shaker family, hKV1.1-hKV1.6 (Figure 3A–F) and three members of Ca^2+-activated potassium channel; hKCa2.2 (SK2, Figure 3I), the small-conductance Ca^2+-activated channel; hKCa3.1 (IKCa1, SK4. Figure 3J), the intermediate-conductance Ca^2+-activated channel expressed in T lymphocytes; and mKCa1.1 (BK, Slo1, MaxiK, Figure 3H), the large-conductance voltage- and Ca^2+-activated channel of mice. In addition, we also screened the effect of Cm39 on hKV11.1 (hERG1, Figure 3G), a voltage-gated cardiac K^+ channel, and two human voltage-gated sodium (hNaV) channels, hNaV1.4 (Figure 3K) and hNaV1.5 (Figure 3L), expressed in skeletal and cardiac muscles, respectively. These ion channels were heterologously expressed in the CHO or HEK cell lines except for KV1.3. Human peripheral T lymphocytes. They were stimulated with Phytohemagglutinin A (PHA) to increase the KV1.3 channel expression, and Ca^2+-free intracellular solution was used to avoid KCa3.1 channel activation. Appropriate depolarization protocols were used to record ionic currents in voltage-clamped cells (see Figure 3 insets and Material and Methods for details). Freshly dissolved sCm39 in extracellular solution was applied at 1 µM concentration on the cell using a custom-built micro-perfusion system at ~200 µL/min flow rate.
# (§2) Chinese hamster ovary (CHO) cells (gift from Yosef Yarden, Weizmann Institute of Science, Rehovot, Israel) were maintained by culturing in Dulbecco’s modified Eagle medium (DMEM, Gibco) supplemented with 2 mM L-glutamine, 10% FBS, 100 µg/mL streptomycin and 100 U/mL penicillin-g (Sigma-Aldrich) at a density of 0. 5−1×10^6 cells per mL in a humidified incubator at 37 °C and 5% CO2. Cells were passaged 3 times in a week following a 2–5 min incubation in 0.05% trypsin-EDTA solution at 37 °C. Cultures were used up to passage number 20. PCR-based tests were routinely used to detect mycoplasma infection, only mycoplasma-free cultures were used for experiments.
# (§3) Those plasmids which lack a fluorescent tag were co-transfected with a plasmid encoding GFP. Transfections were performed at a GFP:channel DNA molar ratio of 1:10 using the Lipofectamine 2000 kit (Invitrogen) according to the manufacturer’s protocol. […] Generally, currents were recorded 24 to 48 h post transfection.
# (§4) For the measurement of KV1.x, mKCa1.1 and NaV1.x currents the extracellular solution was composed of (in mM) 145 NaCl, 5 KCl, 2.5 CaCl2, 1 MgCl2, 10 HEPES and 5.5 glucose, pH 7.35. In the HK-150 and Na^+-free bath solution bath all Na^+ was substituted by K^+ or Choline-Cl, respectively, other ingredients remained unchanged. In the various TEA^+-containing solutions, Na^+ was substituted by tetraethylammonium-Cl in equimolar concentration (Figure 3). The bath solution for KCa2.2 and KCa3.1 consisted of (in mM) 145 L-Aspartic Na^+ salt, 5 KCl, 2.5 CaCl2, 1 MgCl2, 5.5 glucose and 10 HEPES, pH 7.4 and for KV11.1 (in mM) 140 Choline-Cl, 5 KCl, 2 MgCl2, 2 CaCl2, 10 HEPES, 20 glucose and 0.1 CdCl2, pH 7.35. The osmolarity of bath solutions was ranging between 302 to 308 mOsm/L. A total of 0.1 mg/mL bovine serum albumin (BSA, Sigma-Aldrich, Budapest, Hungary) was added to all the bath solutions before the patch-clamp assay to avoid toxin adsorption to the plastic surfaces of the perfusion system. Internal or pipette solution for recording KV1.x and mKCa1.1 currents consisted of (in mM) 140 KF, 2 MgCl2, 1 CaCl2, 11 EGTA and 10 HEPES, pH 7.22.
# [2] = tested on: hKV1.6; assay type: cell-based, human
# From the text: as §1, §2, §3, §4
# [3] = tested on: hKV1.3; assay type: cell-based, human
# From the text: as §1
# For the measurement of KV1.x, mKCa1.1 and NaV1.x currents the extracellular solution was composed of (in mM) 145 NaCl, 5 KCl, 2.5 CaCl2, 1 MgCl2, 10 HEPES and 5.5 glucose, pH 7.35. In the HK-150 and Na^+-free bath solution bath all Na^+ was substituted by K^+ or Choline-Cl, respectively, other ingredients remained unchanged. […]
# Whole-cell currents were recorded in voltage-clamped cells following standard protocols by using a Multiclamp 700B amplifier connected to a computer with Axon Digidata1440 digitizer and for data acquisition, Clampex 10.7 software was used (Molecular Devices).
# [4] = tested on: mKCa1.1; assay type: cell-based, mice
# From the text: as §1, with “rate. […]” for “rate.”
# Whole-cell currents were recorded in voltage-clamped cells following standard protocols by using a Multiclamp 700B amplifier connected to a computer with Axon Digidata1440 digitizer and for data acquisition, Clampex 10.7 software was used (Molecular Devices). […]
# [5] = molecular target: T1, hKV1.2 (Homo sapiens, UniProt P16389); assay: Whole-cell patch-clamp, block of KV1.2 current; assay type: cell-based; conditions: fully reversible blocker as positive control
# T1 construct: GFP (vector pCMV6-AC-GFP); host or cells: CHO cells, transient transfection
# From the text: as §1
# For comprehensive characterization of Cm39 activity on KV1.2, we determined the concentration–response of current inhibition by Cm39, the kinetic parameters of its binding and assessed the effect on voltage dependence of steady-state activation. The whole-cell KV1.2 currents were recorded in CHO cells using depolarization pulses to +50mV from −120mV holding potential (Vh) every 15 s. Since the activation kinetics of KV1.2 are highly variable, the duration of pulses was set on a cell-by-cell basis between 15–300 ms to allocate sufficient time for reaching maximum currents at the test potentials. […] The remaining current fractions (RCF = I/I0, where I0 is the peak current in the absence of the toxin, and I is the peak current at equilibrium block in the presence of sCm39 at a given concentration) were calculated and plotted as a function of toxin concentration.
# Single-exponential decay functions were fitted to the normalized peak currents in the presence of each sCm39 concentration (Figure 4C, data points in red shades) to determine the time constant for the onset of block (τon, wash-in or association time constant). The dissociation time constant for the relief from block (τoff, wash-out time constant) was obtained by fitting a single-exponential rising function to the normalized peak currents in the wash-out procedure (Figure 4C, data point in black empty circles). Assuming a simple bimolecular interaction between the toxin and the channel, time constants for the onset and recovery from the block can be stated as follows:(1) τon=1/kon×[toxin]+koff , τoff=1/koff where kon represents the second-order association rate constant, koff indicates the first-order dissociation rate constant and [toxin] is the sCm39 concentration. […] The second-order rate constant of association (kon) was determined by fitting the 1/τon data points using linear regression with koff as the y-intercept.
# [6] = tested on: KV1.3; conditions: cited from earlier work
# From the text: Most of the peptides in subfamily 4 are very similar (percentage identity ranging from 78 to 97%) and share common pharmacological targets, including KV1.3, KV1.2 and KCa channels. […] Not all subfamily 4 toxins have been tested on the KV1.3 channel, but for those that were te ... || Generally, scorpion toxins interact at two different regions of KV channels to modify their function. Typical functional dyad (lysine and tyrosine) bearing toxins bind to the extracellular vestibule in such a way that lysine goes deep into selectivity filter, thereby plugging the pore of the channel. Other toxins interact with the voltage-sensing domain (VSD) causing the significant change in gating of the channel.
# [7] = molecular target: KCa3.1 channel; conditions: cited from earlier work
# From the text: (§5) Most of the peptides in subfamily 4 are very similar (percentage identity ranging from 78 to 97%) and share common pharmacological targets, including KV1.3, KV1.2 and KCa channels. […] Not all subfamily 4 toxins have been tested on the KV1.3 channel, but for those that were te ... || To date, a number of scorpion-derived peptide toxins are known to block K^+ channels with great affinity. However, these native toxins target more than one channel which compromises their therapeutic use in the management of channelopathies.
# [8] = tested on: KV1.2; conditions: cited from earlier work
# From the text: Most of the peptides in subfamily 4 are very similar (percentage identity ranging from 78 to 97%) and share common pharmacological targets, including KV1.3, KV1.2 and KCa channels. […] Not all subfamily 4 toxins have been tested on the KV1.3 channel, but for those that were te ...
# [9] = tested on: several KV1.x channel subtypes and Ca^2+-activated channels; conditions: high affinity; cited from earlier work
# From the text: To date, a number of scorpion-derived peptide toxins are known to block K^+ channels with great affinity. However, these native toxins target more than one channel which compromises their therapeutic use in the management of channelopathies.
# [10] = tested on: KCa2.2 channel; conditions: cited from earlier work
# From the text: as §5
# T1 sequence (P16389 whole entry): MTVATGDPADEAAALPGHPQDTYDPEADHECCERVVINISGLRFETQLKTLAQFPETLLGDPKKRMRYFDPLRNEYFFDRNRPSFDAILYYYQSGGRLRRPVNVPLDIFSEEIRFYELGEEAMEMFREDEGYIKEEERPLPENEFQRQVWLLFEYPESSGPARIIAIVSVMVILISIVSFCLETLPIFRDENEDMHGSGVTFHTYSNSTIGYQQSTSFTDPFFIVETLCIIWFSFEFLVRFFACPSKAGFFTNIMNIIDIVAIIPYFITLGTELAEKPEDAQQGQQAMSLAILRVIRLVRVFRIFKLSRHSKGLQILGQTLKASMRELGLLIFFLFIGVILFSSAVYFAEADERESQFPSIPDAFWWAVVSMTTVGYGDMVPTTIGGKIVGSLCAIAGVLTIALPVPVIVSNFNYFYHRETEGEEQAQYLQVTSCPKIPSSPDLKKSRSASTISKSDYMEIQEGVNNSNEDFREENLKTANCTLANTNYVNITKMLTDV
compound,measurement,setting,value
"CC[N+](CC)(CC)CC [TEA^+, tetraethylammonium chloride, reference compound]",current response to positive control,[1],decrease in the current
same,current response to positive control,[2],decrease in the current
same,current response to positive control,[3],decrease in the current
same,current response to positive control,[4],decrease in the current
ChTx,current response to positive control,[5],decrease in the current
same,effect on KV1.3,[6],shows effects
same,Kd,[7],5 nM
same,effect on KV1.2,[8],shows effects
same,affinity range,[9],picomolar to nanomolar
"Leiurotoxin I: isolated from Leiurus quinquestriatus hebraeus (AFCNLRMCQLSCRSLGLLGKCIGDKCECVKH; UniProt P16341 1-31, looked up)",inhibition of KCa2.x subtypes,[10]; small-conductance Ca^2+-activated potassium channel KCa2.x subtypes,potent inhibitor
"MgTx (TIINVKCTSPKQCLPPCKAQFGQSAGAKCMNGKCKCYPH; UniProt P40755 1-39, looked up)",affinity range,[9],picomolar to nanomolar
"apamin (CNCKAPETALCARRCQQH-NH2; disulfide 1-11, 3-15; ends not checked; UniProt P01500 28-45, looked up)","blocking effect on KCa2 (small-conductance K^+ channel, SK)",[10],picomolar range
